Assay results published in ChEMBL document CHEMBL5034026, “Design, synthesis and evaluation of 2'-acetylene-7-deaza-adenosine phosphoamidate derivatives as anti-EV71 and anti-EV-D68 agents” (Eur J Med Chem, 2021).

How the values were obtained:
[1] = Selectivity index, ratio of CC50 for human RD cells to IC50 for Enterovirus A71 infected in human RD cells; assay type: toxicity, cell-based; settings: read-out: Selectivity Index
[2] = Selectivity index, ratio of CC50 for human RD cells to IC50 for Enterovirus D68 infected in human RD cells; assay type: toxicity, cell-based; settings: read-out: Selectivity Index
enterovirus D68 = test: Antiviral activity against Enterovirus D68 infected in human RD cells assessed as inhibition of viral replication measured after 4 days by Cell Titer-Glo luminescent cell viability assay; assay type: functional, organism-based; settings: Enterovirus D, 96 h
Enterovirus A71 = test: Antiviral activity against Enterovirus A71 infected in human RD cells assessed as inhibition of viral replication measured after 4 days by Cell Titer-Glo luminescent cell viability assay; assay type: functional, organism-based; settings: Enterovirus A, 96 h
[3] = (§1) Cytotoxicity against human RD cells assessed as reduction in cell viability by Cell Titer-Glo luminescent cell viability assay; assay type: cell-based; settings: RD cells
RD = test: as §1; assay type: cell-based; settings: rd
[4] = Cmax in CD-1 mouse assessed as parent NITD008 level at 5 mg/kg, iv by LC-MS/MS analysis; assay type: ADME, organism-based; set-up: route intravenous, dose 5 mg/kg; settings: in vivo
[5] = Tmax in CD-1 mouse assessed as parent NITD008 level at 5 mg/kg, iv by LC-MS/MS analysis; assay type: ADME, organism-based; settings: in vivo
[6] = AUCinf in CD-1 mouse assessed as parent NITD008 level at 5 mg/kg, iv by LC-MS/MS analysis; assay type: ADME, organism-based; set-up: route intravenous, time infinity, dose 5 mg/kg; settings: in vivo
[7] = AUClast in CD-1 mouse assessed as parent NITD008 level at 25 mg/kg, po by LC-MS/MS analysis; assay type: ADME, organism-based; set-up: route oral, time 0 - last, dose 25 mg/kg; settings: in vivo
[8] = Cmax in CD-1 mouse assessed as parent NITD008 level at 25 mg/kg, po by LC-MS/MS analysis; assay type: ADME, organism-based; set-up: route oral, dose 25 mg/kg; settings: in vivo
[9] = Half life in CD-1 mouse assessed as parent NITD008 level at 25 mg/kg, po by LC-MS/MS analysis; assay type: ADME, organism-based; settings: in vivo
[10] = Half life in CD-1 mouse assessed as parent NITD008 level at 5 mg/kg, iv by LC-MS/MS analysis; assay type: ADME, organism-based; settings: in vivo
[11] = AUCinf in CD-1 mouse assessed as parent NITD008 level at 25 mg/kg, po by LC-MS/MS analysis; assay type: ADME, organism-based; set-up: route oral, time infinity, dose 25 mg/kg; settings: in vivo
[12] = Tmax in CD-1 mouse assessed as parent NITD008 level at 25 mg/kg, po by LC-MS/MS analysis; assay type: ADME, organism-based; settings: in vivo
[13] = AUClast in CD-1 mouse assessed as parent NITD008 level at 5 mg/kg, iv by LC-MS/MS analysis; assay type: ADME, organism-based; set-up: route intravenous, time 0 - last, dose 5 mg/kg; settings: in vivo

Structure (SMILES) | selectivity ratio [1] | selectivity ratio [2] | IC50 (enterovirus D68) [µM] | IC50 (Enterovirus A71) [µM] | CC50 [3] [µM] | CC50 (RD) [µM] | other results
C#C[C@@]1(O)[C@H](O)[C@@H](COP(=O)(N[C@@H](C)C(=O)OCC)Oc2ccccc2)O[C@H]1n1ccc2c(N)ncnc21 (some centres not stated) | 40.2 | 27.1 | 1.23 | 0.83 | 33.4 |  | 
C#C[C@@]1(O)[C@H](O)[C@@H](COP(=O)(N[C@H](CC(C)C)C(=O)OC(C)C)Oc2ccccc2)O[C@H]1n1ccc2c(N)ncnc21 (some centres not stated) | 125 | 3.7 | 18.6 | 0.55 | 68.7 |  | 
C#C[C@@]1(O)[C@H](O)[C@@H](COP(=O)(NCC(=O)OC(C)C)Oc2ccccc2)O[C@H]1n1ccc2c(N)ncnc21 (some centres not stated) | > 15.1 | > 14.1 | 7.93 | 6.61 |  | > 100 | 
C#C[C@@]1(O)[C@H](O)[C@@H](COP(=O)(N[C@@H](C)C(=O)OCCC)Oc2ccccc2)O[C@H]1n1ccc2c(N)ncnc21 (some centres not stated) | < 0.47 | 105 | 0.45 | > 100 | 47.4 |  | 
C#C[C@@]1(O)[C@H](O)[C@@H](COP(=O)(N[C@@H](C)C(=O)OC2CCCCC2)Oc2ccccc2)O[C@H]1n1ccc2c(N)ncnc21 (some centres not stated) | 117 | 131 | 0.17 | 0.19 | 22.2 |  | Cmax [4]: 1421 ng/mL; Tmax [5]: 1.98 min; AUC [6]: 558 ng·h/mL; AUClast [7]: 257 ng·h/mL; Cmax [8]: 70 ng/mL; t1/2 [9]: 5.68 h; t1/2 [10]: 9.8 h; AUC [11]: 281 ng·h/mL; Tmax [12]: 0.5 h; AUClast [13]: 522 ng·h/mL
C#C[C@@]1(O)[C@H](O)[C@@H](COP(=O)(N[C@@H](C(=O)OC)C(C)C)Oc2ccccc2)O[C@H]1n1ccc2c(N)ncnc21 (some centres not stated) | > 7.86 | > 8.55 | 21.6 | 12.7 |  | > 100 | 
C#C[C@@]1(O)[C@H](O)[C@@H](COP(=O)(N[C@@H](C)C(=O)OCCCC)Oc2ccccc2)O[C@H]1n1ccc2c(N)ncnc21 (some centres not stated) | > 345 | > 556 | 0.36 | 0.58 |  | > 200 | 
C#C[C@@]1(O)[C@H](O)[C@@H](COP(=O)(N[C@@H](C)C(=O)OC(CC)CC)Oc2ccccc2)O[C@H]1n1ccc2c(N)ncnc21 (some centres not stated) | > 139 | > 171 | 1.17 | 1.44 |  | > 200 | 
C#C[C@@]1(O)[C@H](O)[C@@H](COP(=O)(N[C@H](Cc2ccccc2)C(=O)OC(C)C)Oc2ccccc2)O[C@H]1n1ccc2c(N)ncnc21 (some centres not stated) | 1.66 | 2.22 | 6.08 | 8.16 | 13.5 |  | 
C#C[C@@]1(O)[C@H](O)[C@@H](COP(=O)(N[C@@H](Cc2ccccc2)C(=O)OC(C)C)Oc2ccccc2)O[C@H]1n1ccc2c(N)ncnc21 (some centres not stated) | 385 | 5.52 | 12.6 | 0.18 | 69.2 |  | 
C#C[C@@]1(O)[C@H](O)[C@@H](COP(=O)(N[C@@H](C)C(=O)OCC(C)C)Oc2ccccc2)O[C@H]1n1ccc2c(N)ncnc21 (some centres not stated) |  | 169 | 0.24 |  |  |  | 
C#C[C@@]1(O)[C@H](O)[C@@H](COP(=O)(N[C@@H](C)C(=O)OC)Oc2ccccc2)O[C@H]1n1ccc2c(N)ncnc21 (some centres not stated) | > 86.2 | > 59.9 | 1.67 | 1.16 |  | > 100 | 
C#C[C@@]1(O)[C@H](O)[C@@H](COP(=O)(N[C@H](Cc2c[nH]c3ccccc23)C(=O)OC(C)C)Oc2ccccc2)O[C@H]1n1ccc2c(N)ncnc21 (some centres not stated) | 25.9 | 5.38 | 7.81 | 1.62 | 42 |  | 
